{"source": "patent US10443103B2", "about": "“Chemotherapy regimen selection” (Innomedicine, LLC, priority 2015, dated 2019)", "tested_on": "breast cancer", "assay": "Observed pathologic complete response (pCR) rate after neoadjuvant chemotherapy, GEO data sets", "assay_type": "in vivo, human", "conditions": "Total of 7 GEO data sets, whole study population", "experimental": "Herein, data was reanalyzed from several previous studies in which breast cancer patients were treated with neoadjuvant chemotherapy. Chemotherapies can be given at different stages of breast cancer: before surgery (also called neoadjuvant chemotherapy), after surgery and after metastasis. Neoadjuvant chemotherapy is often used to shrink tumors to make them more operable. There are two main categories of cytotoxic chemotherapy drugs for breast cancer: anthracyclines and taxanes. Many different combinations of the two types of drugs have been used for treating breast cancer, despite the fact that no effective guidelines are available for the selection of a specific regimen for a patient (Dotan, et al., 2010). Herein, data was collected from 1111 breast cancer patients from GEO database (Gene Expression Omnibus (Edgar, et al., 2002, Barrett, et al., 2013)), where clinical information including responses to chemotherapy and gene expression data are available. […] Among the 1111 patients, 21.2% of them have pCR and the rest have RD as their responses. […]\n1111 breast cancer tumor samples were collected from 7 data series in GEO database (Gene Expression Omnibus (Takada, et al., 2012, Albain, et al., 2010)) (Table 2). […] R (Liu, et al., 2012) package Affyio (Edgar, et al., 2002) was used to read and normalize the Affymetrix® data. […]"}
{"smiles": "CC(=O)O[C@@]12CO[C@@H]1C[C@H](O)[C@@]1(C)C(=O)[C@H](O)C3=C(C)[C@@H](OC(=O)[C@H](O)[C@@H](NC(=O)OC(C)(C)C)c4ccccc4)C[C@@](O)([C@@H](OC(=O)c4ccccc4)[C@H]21)C3(C)C", "note": "[docetaxel]", "values": [{"measurement": "percentage of patients who have pCR", "result": 33.1, "unit": "%"}]}
{"smiles": "CC(=O)O[C@H]1C(=O)[C@@]2(C)[C@H]([C@H](OC(=O)c3ccccc3)[C@]3(O)C[C@H](OC(=O)[C@H](O)[C@@H](NC(=O)c4ccccc4)c4ccccc4)C(C)=C1C3(C)C)[C@]1(OC(C)=O)CO[C@@H]1C[C@@H]2O", "note": "[paclitaxel]", "values": [{"measurement": "percentage of patients who have pCR", "result": 19.7, "unit": "%"}]}
